Results from ChEMBL document CHEMBL4342436, “Artemisia: a promising plant for the treatment of cancer” (Bioorg Med Chem, 2020).
Values after ≈ are worked out from the molar mass of the structure shown.

What was measured:
IGROV-1 = assay: Growth inhibition of human IGROV1 cells assessed as reduction in cell viability at 15 uM by MTT assay relative to control; type: functional; conditions: read-out: GI
OVCAR-3 = assay: Growth inhibition of human OVCAR3 cells assessed as reduction in cell viability at 15 uM by MTT assay relative to control; type: functional; conditions: read-out: GI
HCT-116 = assay: Growth inhibition of human HCT116 cells assessed as reduction in cell viability at 15 uM by MTT assay relative to control; type: functional; conditions: read-out: GI
BGC-823 [1] = assay: Cytotoxicity against human BGC823 cells after 72 hrs by MTT assay; type: functional, cell-based; conditions: BGC-823, 72 h
A549 [2] = assay: Cytotoxicity against human A549 cells after 72 hrs by MTT assay; type: functional, cell-based; conditions: A549, 72 h
HCT-8 [3] = assay: Cytotoxicity against human HCT8 cells after 72 hrs by MTT assay; type: functional, cell-based; conditions: HCT-8, 72 h
SW-620 = assay: Antitumour activity against human SW620 cells xenografted in nude mouse assessed as inhibition of tumour growth at 50 mg/kg, ip for 17 days relative to control; type: functional; conditions: SW-620, ip, 408 h, read-out: TGI
NCI-H23 = assay: Antitumour activity against human NCI-H23 cells xenografted in nude mouse assessed as inhibition of tumour growth at 50 mg/kg, ip for 17 days relative to control; type: functional; conditions: 408 h, read-out: TGI
BGC-823 [4] = assay: Cytotoxicity against human BGC823 cells; type: functional, cell-based
HCT-8 [5] = assay: Cytotoxicity against human HCT8 cells; type: functional, cell-based
A549 [6] = assay: Cytotoxicity against human A549 cells; type: functional, cell-based
[7] = Cytotoxicity against mouse Meth-A cells by MTT assay; type: functional; conditions: read-out: ED50 (the source's name)
SMMC-7721 = assay: Cytotoxicity against human SMMC7721 cells by MTT assay; type: functional, cell-based
SGC-7901 = assay: Cytotoxicity against human SGC7901 cells by MTT assay; type: functional, cell-based
HepG2 = assay: Cytotoxicity against human HepG2 cells assessed as reduction in cell viability by CCK8 assay; type: functional, cell-based
A549 [8] = assay: Cytotoxicity against human A549 cells assessed as reduction in cell viability by CCK8 assay; type: functional, cell-based
HL-60 = assay: Cytotoxicity against human HL60 cells; type: functional, cell-based
K562 [9] = assay: Cytotoxicity against human K562 cells; type: functional, cell-based
[10] = Cytotoxicity against human 95-D cells by SRB assay; type: functional, cell-based
K562 [11] = assay: Antiproliferative activity against human K562 cells assessed as cell viability at 75 uM after 48 hrs relative to control; type: functional; conditions: K562, 48 h, read-out: Activity
K562 [12] = assay: Cytotoxicity against human K562 cells assessed as cell viability at 75 uM after by MTT assay relative to control; type: functional; conditions: read-out: Activity

SMILES: COc1cc2oc(-c3ccc(O)c(O)c3)cc(=O)c2c(O)c1OC [CIRSILIOL]
- inhibition of growth at 15 µM (IGROV-1): 48.8%
- inhibition of growth at 15 µM (OVCAR-3): 53.7%
- inhibition of growth at 15 µM (HCT-116): 40.9%

SMILES: CC#CC#CC1=C(CCCCO)C(O)C(O)C1=O (stereo unspecified)
- IC50 (BGC-823 [1]): 1.1 µM
- IC50 (A549 [2]): 7.5 µM
- IC50 (HCT-8 [3]): 4.6 µM

SMILES: C=C1C(=O)O[C@@H]2[C@@H]3[C@@]4(C=C[C@@]3(C)[C@@]3(C4)C(=O)O[C@@H]4[C@H]5C(C)=CC(=O)C5=C(C)C[C@H](OC(=O)/C(C)=C\C)[C@H]43)[C@](C)(O)CC[C@@H]12
- inhibition in vivo at 50 mg/kg (SW-620): 39.5%
- inhibition in vivo at 50 mg/kg (NCI-H23): 30.3%

SMILES: CC(=O)OCC1=C2CC[C@@]3(C)[C@H](O)CC(OC(C)=O)=C(C)[C@@H]3[C@H]2OC1=O
- IC50 (BGC-823 [4]): 2.71 µM
- IC50 (HCT-8 [5]): 3.76 µM
- IC50 (A549 [6]): 5.49 µM

SMILES: CC(C)C(=O)CC[C@@H](C)[C@H]1CC[C@@]2(C)[C@@H]3CC[C@H]4C(C)(C)[C@@H](O)CC[C@@]45C[C@@]35CC[C@]12C
- EC50 [7]: 4 to 10 µg/mL (≈ 9.03 to 22.6 µM)

SMILES: CC1=CC2O[C@@H]3C[C@H]4OC(=O)/C=C\CC[C@]56OCCC7(OC7C(=O)OC[C@@]2(CC1)[C@]4(C)[C@]31CO1)[C@H]5OC(=O)[C@H]6O (stereo partly specified)
- IC50 (SMMC-7721): 10.54 µg/mL (≈ 18.9 µM)
- IC50 (SGC-7901): 0.26 µg/mL (≈ 0.465 µM)

SMILES: C=C1C(=O)O[C@@H]2[C@@H]3C4(C=C[C@@]3(C)[C@]3(C4)C(=O)O[C@@H]4[C@H]5C(C)=CC(=O)C5=C(C)C[C@H](OC(C)=O)[C@H]43)[C@@](C)(OC(C)=O)CC[C@@H]12
- IC50 (HepG2): 0.6 to 5.4 µM
- IC50 (A549 [8]): 0.6 to 5.4 µM

SMILES: C=C1CCC(O)C2(C)CCC3C(C)C(=O)OC3C12O (stereo unspecified)
- IC50 (HL-60): 71.1 µM
- IC50 (K562 [9]): 22.5 µM
- IC50 [10]: 11.3 µM

SMILES: C[C@@H]1C(=O)O[C@H]2C1CC[C@@]1(C)[C@H](O)CC[C@@]13C[C@]2(O)OO3 (stereo partly specified)
- viability at 75 µM (K562 [11]): 40%
- viability at 75 µM (K562 [12]): 40%
